In BindingDB's records for doi:10.7270/Q280511V (University of Pittsburgh, 2008) one finds IC50 data, which are given here for 31 compounds.

The assay concerns the target Serine/threonine-protein kinase PLK1 (Homo sapiens, UniProt P53350). The assay can be described thus: PLK1 polo-box domain peptide-binding inhibitors, SAR follow-up, biochemical, fluorescence polarization, synthesized analogs, concentration response (AID 1057).

Chain of Serine/threonine-protein kinase PLK1 (P53350 whole entry, the tested form may be a part): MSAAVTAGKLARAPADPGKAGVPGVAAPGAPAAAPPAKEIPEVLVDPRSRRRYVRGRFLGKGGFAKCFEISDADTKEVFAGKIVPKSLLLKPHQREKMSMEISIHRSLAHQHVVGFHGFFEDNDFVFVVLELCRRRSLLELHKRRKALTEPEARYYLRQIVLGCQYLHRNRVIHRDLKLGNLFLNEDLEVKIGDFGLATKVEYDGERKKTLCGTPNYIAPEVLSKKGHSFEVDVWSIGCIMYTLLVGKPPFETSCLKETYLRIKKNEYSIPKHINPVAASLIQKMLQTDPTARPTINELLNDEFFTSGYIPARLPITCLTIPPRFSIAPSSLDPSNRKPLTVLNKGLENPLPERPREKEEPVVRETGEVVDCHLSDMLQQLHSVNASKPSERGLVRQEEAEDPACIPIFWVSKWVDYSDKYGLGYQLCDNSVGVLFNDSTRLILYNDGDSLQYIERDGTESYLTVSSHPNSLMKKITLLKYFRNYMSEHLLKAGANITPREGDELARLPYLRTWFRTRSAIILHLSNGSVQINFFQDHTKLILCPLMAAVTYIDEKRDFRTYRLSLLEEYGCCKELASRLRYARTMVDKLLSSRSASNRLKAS

On to `CCOC(=O)c1ccc(NC(=O)c2c(O)[nH]c(=O)[nH]c2=O)cc1`, for which the IC50 was above 50 µM.
`CCOC(=O)c1ccccc1NC(=O)c1c(O)[nH]c(=O)[nH]c1=O` gave a half-inhibitory concentration (IC50) above 50 µM.
With `CCOC(=O)c1ccccc1NC(=O)c1c(O)[nH]c(=S)[nH]c1=O` the figure was above 50 µM; with `O=C(Nc1ccccc1)c1c(O)[nH]c(=O)[nH]c1=O`, above 50 µM; with `O=C(Nc1ccccc1)c1c(O)[nH]c(=S)[nH]c1=O`, above 50 µM.
With `CCOc1ccc(NC(=O)c2c(N)n(C)c(=O)[nH]c2=O)cc1` the figure was above 50 µM; with `CC(NNC(=O)c1ccncc1)=C1C(=O)NC(=O)NC1=O`, above 50 µM; with `Cc1ccc(NC(=O)c2ccc(F)cc2F)cc1` [2,4-bis(fluoranyl)-N-(4-methylphenyl)benzamide], above 50 µM.
To `O=C(Nc1ccccc1)c1ccc(F)cc1F` [2,4-bis(fluoranyl)-N-phenyl-benzamide] belongs above 50 µM; to `CCOc1ccc(NC(=O)c2ccc(F)cc2F)cc1` [2,4-difluoro-N-p-phenetyl-benzamide], above 50 µM.
As to `CCOC(=O)c1ccccc1NC(=O)c1ccc(F)cc1F` [2-[(2,4-difluorobenzoyl)amino]benzoic acid ethyl ester], the IC50 was above 50 µM.
With `CCOC(=O)c1cccc(NC(=O)c2ccc(F)cc2F)c1` [3-[(2,4-difluorobenzoyl)amino]benzoic acid ethyl ester] the figure was above 50 µM; with `CCOC(=O)c1cccc(NC(=O)c2c(O)[nH]c(=O)[nH]c2=O)c1` [3-[[(6-hydroxy-2,4-dioxo-1H-pyrimidin-5-yl)-oxomethyl]amino]benzoic acid ethyl ester], above 50 µM.
With `CCCCOC(=O)c1ccc(NC(=O)c2ccc(F)cc2F)cc1` [4-[(2,4-difluorobenzoyl)amino]benzoic acid butyl ester] the figure was above 50 µM.
With `CCOC(=O)c1ccc(NC(=O)c2ccc(F)cc2F)cc1` [4-[(2,4-difluorobenzoyl)amino]benzoic acid ethyl ester] the figure was above 50 µM; with `CCOC(=O)c1ccc(NS(=O)(=O)c2c(N)n(C)c(=O)n(C)c2=O)cc1` [4-[(4-amino-1,3-dimethyl-2,6-dioxo-5-pyrimidinyl)sulfonylamino]benzoic acid ethyl ester], above 50 µM; with `CCOC(=O)c1ccc(NC(=O)c2c(N)n(C)c(=O)n(C)c2=O)cc1` [4-[(4-amino-2,6-diketo-1,3-dimethyl-pyrimidine-5-carbonyl)amino]benzoic acid ethyl ester], above 50 µM.
`CCCCOC(=O)c1ccc(NC(=O)c2c(N)n(C)c(=O)[nH]c2=O)cc1` [4-[[(6-amino-1-methyl-2,4-dioxo-5-pyrimidinyl)-oxomethyl]amino]benzoic acid butyl ester] came in with an IC50 above 50 µM.
With `CCCCOC(=O)c1ccc(NC(=O)c2c(O)[nH]c(=O)[nH]c2=O)cc1` [4-[[(6-hydroxy-2,4-dioxo-1H-pyrimidin-5-yl)-oxomethyl]amino]benzoic acid butyl ester] the figure was above 50 µM; with `Cn1c(N)c(S(=O)(=O)NCc2ccccc2)c(=O)n(C)c1=O` [4-amino-1,3-dimethyl-2,6-dioxo-N-(phenylmethyl)-5-pyrimidinesulfonamide], above 50 µM; with `Cc1cccc(NNC=C2C(=O)NC(=S)NC2=O)c1` [5-[[2-(3-methylphenyl)hydrazinyl]methylidene]-2-sulfanylidene-1,3-diazinane-4,6-dione], above 50 µM.
With `CCOC(=O)CCCCCNC(=O)c1ccc(F)cc1F` [6-[(2,4-difluorobenzoyl)amino]hexanoic acid ethyl ester] the figure was above 50 µM; with `CCOC(=O)CCCCCNC(=O)C1C(=O)NC(=O)NC1=O` [6-[[hydroxy-(2,4,6-triketohexahydropyrimidin-5-ylidene)methyl]amino]hexanoic acid ethyl ester], above 50 µM; with `CCOc1ccc(NC(=O)c2c(O)[nH]c(=O)[nH]c2=O)cc1` [N-(4-ethoxyphenyl)-6-hydroxy-2,4-dioxo-1H-pyrimidine-5-carboxamide], above 50 µM.
Consider `CCOC(=O)c1ccc(NC(=O)c2c(N)n(C)c(=O)[nH]c2=O)cc1` [UPDDI-00294856], for which the half-inhibitory concentration (IC50) is above 50 µM.
With `Cn1c(N)c(C(=O)Nc2ccccc2)c(=O)[nH]c1=O` [UPDDI-00398616] the figure was above 50 µM; with `CCOC(=O)c1cccc(NC(=O)c2c(N)n(C)c(=O)[nH]c2=O)c1` [UPDDI-00398617], above 50 µM; with `CCOC(=O)c1ccc(NC(=O)c2c(NCc3ccccc3)[nH]c(=O)[nH]c2=O)cc1` [UPDDI-00398618], above 50 µM.
With `CCOC(=O)c1ccccc1NC(=O)c1c(N)n(C)c(=O)[nH]c1=O` [ethyl 2-[[6-azanyl-1-methyl-2,4-bis(oxidanylidene)pyrimidin-5-yl]carbonylamino]benzoate] the figure was above 50 µM; with `CCOC(=O)c1cccc(NC(=O)c2c(NCc3ccccc3)[nH]c(=O)[nH]c2=O)c1` [ethyl 3-[[2,4-bis(oxidanylidene)-6-[(phenylmethyl)amino]-1H-pyrimidin-5-yl]carbonylamino]benzoate], above 50 µM; with `CCOC(=O)c1ccc(NC(=O)c2c(N)n(Cc3ccccc3)c(=O)[nH]c2=O)cc1` [ethyl 4-[(6-amino-1-benzyl-2,4-dioxopyrimidine-5-carbonyl)amino]benzoate], above 50 µM.

As usually defined, the IC50 is the concentration that gives 50% inhibition. A lower IC50 goes with greater potency.
